Data on 67 sequences can be found in paper PMC11714206, “Massively Parallel Screening of Toll/Interleukin‐1 Receptor (TIR)‐Derived Peptides Reveals Multiple Toll‐Like Receptors (TLRs)‐Targeting Immunomodulatory Peptides” (Advanced Science, 2024).

The experiment addresses T1, MAL^TIR (Homo sapiens, UniProt P58753).
T1 construct: MAL (residues 79–221); 6xHis; made in house; host or cells: E. coli BL21 (DE3)
Nature of the experiment: T‐Surf phage library (P8 and P3) selection against MAL^TIR, four rounds, NGS read counts. Format: binding. The conditions noted are these: for Rank (after): P8_MAL: rank by count after grouping; for Rank (before): P8_MAL: rank by count before grouping; for P8_MAL Rank (after) / P8_MAL Rank (before): P8 library; for Population: P8_MAL pool: P8 T-Surf phage library, 4th round of selection against MAL TIR, share of NGS reads. The procedure: T‐Surf libraries were screened against the immobilized TIR domains of two major human TLR adaptor proteins, MAL^TIR and MyD88^TIR, allowing cross‐species selection of TIR‐binding motifs with 190 946 TIR‐derived peptides in a single binding assay (Scheme 1). Enriched phage pools from the fourth round of selection were analyzed using NGS after barcoding the peptide‐coding regions of the phage pools.
Phage display screening was performed by coating two wells of a 96‐well plate (Maxisorp, Thermo Fisher Scientific) with 100 µL of 5 µg mL^−1 TIR domains overnight; then, the coated wells were blocked with 200 µL of blocking buffer (0.2% BSA in PBS) and set aside for 1 h at 4 °C with gentle shaking. Next, 100 µL of the phage library was added to the wells and incubated for 1 h at room temperature (RT; 20 – 22 °C) with gentle shaking. The plate was washed four times with PBS containing 0.5% Tween‐20; the bound phages were eluted by adding 100 µL of 100 mM HCl to each well. The elute was neutralized with 10 µL of 1.0 M Tris‐HCl (pH 11.0). E. coli TG1 cells were grown to the log phase (A600 = ≈0.6), and 1 mL of the culture was incubated with 100 µL of the eluted phages for 30 min at 37 °C, with shaking at 200 rpm. Next, 1 µL of M13KO7 helper phages was added, followed by incubation for 45 min at 37 °C, with shaking. Subsequently, the cells were transferred to 25 mL of 2× yeast extract tryptone/carbenicillin/kanamycin medium and incubated overnight at 37 °C with shaking at 200 rpm. The amplified phages were precipitated with 20% PEG‐8000/2.5 M NaCl to be used for the next round of selection.
The naïve T‐Surf libraries in P8 and P3 and the enriched phage pools after four rounds were barcoded for NGS as previously described.^[ [59] ^] Briefly, 5 µL of the phage pool was used as a template for 20 cycles of a 50 µL PCR reaction using […] each of forward and reverse barcoded primers and PrimeSTAR Max DNA Polymerase. The PCR products were purified using Expin Gel SV (GeneAll). The NGS samples were quantified using qPCR, following the qPCR Quantification Protocol Guide (KAPA Library Quantification kits for Illumina Sequencing Platform), and qualified using the TapeStation High Sensitivity D1000 ScreenTape (Agilent Technologies). The indexed libraries were further sequenced by Macrogen (Seoul, Republic of Korea) using the NovaSeq platform (Illumina) with 100 bp paired‐end reads. The reads were demultiplexed by barcodes and filtered for an average Phred quality score of at least 30, followed by trimming the flanking consensus sequences using Cutadapt (version 2.3). Peptide sequence populations were analyzed according to the read counts.

The mark [1] stands for this setting: selection against MAL TIR, rank by count after grouping.
Where [2] appears, read: selection against MAL TIR, rank by count before grouping.
Where [3] appears, read: 4R selection against MAL, rank after grouping.
The mark [4] stands for this setting: 4R selection against MAL, rank before grouping.
Where [5] appears, read: selection against MAL, rank after grouping.
[6] abbreviates: selection against MAL, rank before grouping.
[7] abbreviates: selection against MAL, rank by count after grouping.
Setting [8] is: selection against MAL, rank by count before grouping.

T1 sequence (P58753 79-221): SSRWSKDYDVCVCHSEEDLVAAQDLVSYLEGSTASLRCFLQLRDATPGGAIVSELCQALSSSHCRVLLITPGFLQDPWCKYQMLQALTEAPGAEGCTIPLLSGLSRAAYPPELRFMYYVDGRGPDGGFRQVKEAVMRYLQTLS

As to AFFWEQLRTVLGKPR, the “Rank (after)” value was determined as 130 and the “Rank (before)” value was 835.
On to AFFWEQLRTVLGKPSI, for which the “P8_MAL Rank (after)” value under setting [1] was found to be 194. For the same sequence, under setting [2], the “P8_MAL Rank (before)” value amounted to 1684.
On to AFFWEQLRTVLRKPTT, for which, under setting [3], the “P8_MAL Rank (after)” value is 631. Besides, the “P8_MAL Rank (before)” value under setting [4] was found to be 1693.
As to AFFWEQLRTVLRTPTL, the “P8_MAL Rank (after)” value under setting [3] came out at 613. Besides, the “P8_MAL Rank (before)” value under setting [4] came out at 1676.
As to AFFWEQMRTVLGKPTT, the “P8_MAL Rank (after)” value under setting [3] was 612. The “P8_MAL Rank (before)” value under setting [4] is 1710.
The like results for AFFWERLRPVLRKPTR were, in that order, 637 and 1668.
Regarding AFFWPKLKSGLGNPTM, the “P8_MAL Rank (after)” value under setting [3] is reported as 635. For the same sequence, the “P8_MAL Rank (before)” value under setting [4] amounted to 1717.
For the sequence AFFWPQLKSMLRNTTV, the “Rank (after)” value came to 418 and the “Rank (before)” value came out at 1716.
As for AFFWPQLKSVLGNPTK, the “Rank (after)” value stood at 146 and the “Rank (before)” value is on record as 1715.
Consider AFFWQQLKSVPGNPTM, for which the “Rank (after)” value amounted to 154 and the “Rank (before)” value turned out to be 1718.
Regarding AFFWTHLKNLPRNPTF, the “P8_MAL Rank (after)” value under setting [1] is 285. For the same sequence, the “P8_MAL Rank (before)” value under setting [2] amounted to 1721.
On to AFFWTQLSTVMGKPTM, for which, under setting [5], the “P8_MAL Rank (after)” value is recorded as 527. The “P8_MAL Rank (before)” value under setting [6] was 1722.
Consider AFLCAHLKSVLGNPTI, for which the “Rank (after)” value is given as 461 and the “Rank (before)” value was determined as 1804.
Turning to AFLCDQLSTLMDPPTF, the “P8_MAL Rank (after)” value under setting [5] is on record as 578. Further, the “P8_MAL Rank (before)” value under setting [6] was determined as 1805.
As for AFLCPQLKSVLGNPTI, the “Rank (after)” value is 133 and the “Rank (before)” value was found to be 1753.
The corresponding values for AFLCTFLINLTHNTTF are 185 and 1757.
The like results for AFLCTHLKNLIHKTTI were, in that order, 415 and 1755.
With AFLCTQLNNVTDTPTL, the “Rank (after)” value is listed as 442 and the “Rank (before)” value is reported as 1756.
Consider AFLDPFLINLIQASIL, for which the “P8_MAL Rank (after)” value under setting [3] is given as 616. The “P8_MAL Rank (before)” value under setting [4] amounted to 1968.
Take AFLDPFLITLIQASNF: under setting [5], the “P8_MAL Rank (after)” value is recorded as 505. Moreover, the “P8_MAL Rank (before)” value under setting [6] is 1908.
Regarding AFLFTFLINLTHPSNF, the “Rank (after)” value was determined as 450 and the “Rank (before)” value is 1803.
On to AFLGAQLKSVLGKPTM, for which the “P8_MAL Rank (after)” value under setting [5] came to 554. Moreover, under setting [6], the “P8_MAL Rank (before)” value is 1775.
The corresponding values for AFLGEQLHTMVDKPTM are 491 and 1776.
Regarding AFLGHLYNALVQAGIH, the Population amounted to 0.00371%.
For the sequence AFLGTAAYRAGQTDD, the “Rank (after)” value is 430 and the “Rank (before)” value is reported as 1777.
On to AFLGTFLIKLMHATIY, for which, under setting [5], the “P8_MAL Rank (after)” value is reported as 570. Moreover, under setting [6], the “P8_MAL Rank (before)” value turned out to be 1906.
The like results for AFLNTLLKNLTRPPNF were, in that order, 562 and 1912.
On to AFLWAQLNSVLGNPTM, for which the “Rank (after)” value is on record as 156 and the “Rank (before)” value worked out at 1778.
The corresponding values for AFLWAYLNSVTHPPTF are 471 and 1796.
The corresponding values for AFLWTQLKNVLGNPTF are 408 and 1766.
Regarding AFLWTQLKSLLRNTTM, the “P8_MAL Rank (after)” value under setting [5] is recorded as 534. Under setting [6], the “P8_MAL Rank (before)” value is listed as 1765.
As for AFLWTQLKSVLGNPTM, under setting [1], the “P8_MAL Rank (after)” value was found to be 242. The “P8_MAL Rank (before)” value under setting [2] is 1764.
Regarding AFLWTYLSNLMHQPTF, under setting [5], the “P8_MAL Rank (after)” value is 483. Also, the “P8_MAL Rank (before)” value under setting [6] was 1797.
As to AFLYAFLINLTHPTNI, the “Rank (after)” value worked out at 142 and the “Rank (before)” value is 1812.
Regarding AFLYAFLISLTHTTTF, the “P8_MAL Rank (after)” value under setting [5] is listed as 571. For the same sequence, under setting [6], the “P8_MAL Rank (before)” value was found to be 1798.
On to AFLYAFLKNLTHPTNF, for which the “P8_MAL Rank (after)” value under setting [7] was 683. For the same sequence, under setting [8], the “P8_MAL Rank (before)” value was 1813.
AFLYAFLNNLTHPTTF: the “Rank (after)” value turned out to be 139 and the “Rank (before)” value amounted to 1767.
The corresponding values for AFLYDFLINLTHQTNF are 159 and 1814.
In the case of AFLYLSDQSDPSDQF, under setting [1], the “P8_MAL Rank (after)” value was found to be 237. The “P8_MAL Rank (before)” value under setting [2] was 1915.
In the case of AFLYNFFNDLTHPTIY, under setting [3], the “P8_MAL Rank (after)” value stood at 582. Also, the “P8_MAL Rank (before)” value under setting [4] is reported as 1890.
The corresponding values for AFLYNFLLNLTHKPTF are 671 and 1891.
Regarding AFLYPFLINLTHPTIP, under setting [5], the “P8_MAL Rank (after)” value came to 512. The “P8_MAL Rank (before)” value under setting [6] is reported as 1816.
The corresponding values for AFLYSFLTNLTHPTEN are 494 and 1818.
Turning to AFLYSLLFNRTHPNYF, the “P8_MAL Rank (after)” value under setting [7] stood at 702. The “P8_MAL Rank (before)” value under setting [8] amounted to 1809.
For AFLYSLLISLPETANI, under setting [5], the “P8_MAL Rank (after)” value is recorded as 543. For the same sequence, under setting [6], the “P8_MAL Rank (before)” value is given as 1810.
In the case of AFLYTFDQSDPSDQF, the “P8_MAL Rank (after)” value under setting [5] worked out at 509. Besides, under setting [6], the “P8_MAL Rank (before)” value amounted to 1822.
AFLYTFLFNLTHQTNS: the “P8_MAL Rank (after)” value under setting [3] is on record as 590. Also, the “P8_MAL Rank (before)” value under setting [4] is listed as 1883.
For the sequence AFLYTFLGHLYNALVQAGIH, the “P8_MAL Rank (after)” value under setting [5] stood at 497. In addition, the “P8_MAL Rank (before)” value under setting [6] turned out to be 1828.
For the sequence AFLYTFLIILPIRPNF, the “P8_MAL Rank (after)” value under setting [3] is 589. Under setting [4], the “P8_MAL Rank (before)” value is 1835.
For the sequence AFLYTFLIILTHPINF, under setting [7], the “P8_MAL Rank (after)” value is recorded as 688. Further, the “P8_MAL Rank (before)” value under setting [8] came to 1833.
As to AFLYTFLIKLTHPPNF, the “Rank (after)” value amounted to 101 and the “Rank (before)” value was found to be 1862.
Consider AFLYTFLINDPSDQF, for which, under setting [1], the “P8_MAL Rank (after)” value was 214. Further, under setting [2], the “P8_MAL Rank (before)” value is recorded as 1836.
AFLYTFLINLAHPTNF yielded a Population of 0.00278%.
Regarding AFLYTFLINLPHTNNF, the “P8_MAL Rank (after)” value under setting [3] amounted to 628. Moreover, the “P8_MAL Rank (before)” value under setting [4] was determined as 1838.
Turning to AFLYTFLINLTHKPTF, the “P8_MAL Rank (after)” value under setting [1] was determined as 228. Also, the “P8_MAL Rank (before)” value under setting [2] worked out at 1866.
As for AFLYTFLINLTHLPNF, the “Rank (after)” value was 95 and the “Rank (before)” value stood at 1842.
In the case of AFLYTFLINLTHPNNF, the Population was found to be 0.00463%.
Consider AFLYTFLINLTHPPI, for which the “Rank (after)” value is 190 and the “Rank (before)” value is 1854.
In the case of AFLYTFLINLTHPQF, the “P8_MAL Rank (after)” value under setting [1] is 275. Moreover, the “P8_MAL Rank (before)” value under setting [2] came to 1852.
The sequence AFLYTFLINLTHPSNF yielded a Population of 0.00309%.
Consider AFLYTFLINLTHPTIH, for which the “Rank (after)” value is recorded as 161 and the “Rank (before)” value turned out to be 852.
AFLYTFLINLTHPTKV: the “P8_MAL Rank (after)” value under setting [5] turned out to be 514. Also, under setting [6], the “P8_MAL Rank (before)” value is 1851.
The sequence AFLYTFLINLTHPTNL returned a Population of 0.00371%.
Consider AFLYTFLINLTHPTNS, for which the Population came to 0.0034%.
On the same count and under the same terms, the result for AFLYTFLINLTHPTTF reads 0.0034%; that for AFLYTFLINLTHQTNF, 0.0034%; that for AFLYTFLINLTIRPIX, 0.00371%.
